Key:
[1] = system: CDM5 cells (β-tcTet cells); test: Cell membrane potential measured with the bis-oxonol assay; type: cell-based
Protocol: In order to test the bioefficacy of GLP-1, which was believed to be secreted by β-1081 cells, the supernatant of the 1081 cells were kept for 4 hours in 25 mM KRBH. CDM5 cells (a type of β-cTCtet cell) were then stimulated with this supernatant. Next, the effect of this stimulation in cell membrane potential was measured using the bis-oxonol assay.
Those skilled in the art will recognize that GLP-1 has the effect of depolarizing the cell membrane upon application. This depolarization is the result of the stimulatory effect of GLP-1 on cAMP, which, as discussed above, leads to increased insulin secretion. The increased insulin secretion is the result of both the enhanced closing of ATP sensitive potassium (K^+ ATP) channels in the membrane of the β-cell as well as the protein kinase A activation of distal exocytotic events.
The cells were allowed to equilibrate in 8 mM glucose and 400 μM Diazoxide for 600 seconds. At 200, 400, 600, 800, and 1000 seconds, 1, 2, 4, 6, and 8 nM GLP-1-gly8, respectively, were added to the medium.
In this experiment, the cells were equilibrated at 8 mM glucose and 400 μM of diazoxide for 600 seconds. At t=100 seconds, 100 nM of Exendine-(9-39) was added. […] At t=600 seconds, 20 μl of water was added as a dilution control.
Again, the cells were allowed to equilibrate at 8 mM glucose and 400 μM Diazoxide for 600 seconds. At 200 seconds, 24 μl of the supernatant of the GLP-1 secreting 1081 cells were added to the cells. […] At 1500 seconds, 24 μl of the supernatant was added.
Exendine (9-39) is an inhibitor of GLP-1 activity. […] In this experiment, the equilibration period lasted from time […]. At t=200 seconds, […] of Exendine (9-39) was added to the cells.

[2] = comparison of GLP-1-gly8 and wild type GLP-1; cited from earlier work
[3] = system: diabetic mice implanted with encapsulated CDM3D cells; test: In vivo evaluation of GLP-1-gly8 injected intraperitoneally in diabetic mice implanted with encapsulated CDM3D cells
Text: The effect observed in the control group can probably be attributed to the few remaining islets (β-cells) in the pancreas of the mice that remain functional following streptozocin treatment.

Row | Compound | membrane potential ([1]; 8 nM GLP-1-gly8, cells in 8 mM glucose and 400 μM Diazoxide, FIG. 3) | membrane potential ([1]; 1, 2, 4, 6 nM GLP-1-gly8, cells in 8 mM glucose and 400 μM Diazoxide, FIG. 3) | membrane potential ([1]; GLP-1-gly8 after exposure of the cells to Exendine-(9-39), FIG. 4) | half-life [2] | glycemia after injection, test group ([3]; 0.1 nmol IP at t=0, streptozocin-diabetic mice implanted IP with encapsulated CDM3D cells, first two hours, FIG. 1) | glycemia after injection, control group ([3]; 0.1 nmol IP at t=0, streptozocin-diabetic non-implanted mice, FIG. 1) | loss of the effect on glycemia in the test group ([3]; 0.1 nmol IP, implanted diabetic mice) | membrane potential ([1]; 8 mM glucose and 400 μM Diazoxide, 2×10^6 cells, FIG. 6) | membrane potential ([1]; 400 μm Diazoxide at t=2800 s, FIG. 2)
1 | GLP-1-gly8: commercial GLP-1-gly8, given rather than wild-type GLP-1; half-life longer than wild type GLP-1 (HDEFERHGEGTFTSDVSSYLEGQAAKEFIAWLVKGRG; Glucagon-like peptide 1; UniProt P01275 92-128, looked up, variant A8G) | saturation of the effect | depolarization of the cell membrane | no response was observed | longer than the half-life of wild type GLP-1 | large decrease in glycemia | smaller (and shorter decrease) in glycemia | 120 min |  | 
2 | CC1=NS(=O)(=O)c2cc(Cl)ccc2N1 [Diazoxide] |  |  |  |  |  |  |  | maximum hyperpolarization | maximum depolarization

From patent US20020025306A1, “Methods of increasing the glucose responsiveness of pancreatic ss-cells” (priority 2000, published 2002)
